# Literature values in patent US20240166770A1, “COMPOSITIONS AND METHODS FOR INHIBITION OF CELL-PENETRATING ANTIBODIES” (Yale University, priority 2019, published 2024).
# Where two headings read alike, the source gives them in different places.
# Legend:
# ENT2 [1] = target: T1, ENT2 (Homo sapiens, UniProt Q14542); conditions: cited from earlier work
# T1 sequence (Q14542 1-456): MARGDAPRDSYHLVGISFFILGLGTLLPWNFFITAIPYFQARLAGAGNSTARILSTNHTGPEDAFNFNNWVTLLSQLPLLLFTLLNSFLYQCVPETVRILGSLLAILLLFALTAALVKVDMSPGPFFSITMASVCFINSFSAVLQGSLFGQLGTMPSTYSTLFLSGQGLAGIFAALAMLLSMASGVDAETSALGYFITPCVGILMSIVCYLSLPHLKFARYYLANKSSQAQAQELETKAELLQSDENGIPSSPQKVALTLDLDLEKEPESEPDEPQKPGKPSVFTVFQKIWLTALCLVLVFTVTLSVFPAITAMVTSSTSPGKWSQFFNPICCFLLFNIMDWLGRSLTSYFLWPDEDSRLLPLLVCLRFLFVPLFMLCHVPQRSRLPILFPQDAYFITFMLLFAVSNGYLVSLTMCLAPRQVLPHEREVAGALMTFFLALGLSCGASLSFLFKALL
# hENT4 [2] = target: T2, hENT4 (Homo sapiens, UniProt Q7RTT9); conditions: cited from earlier work
# T2 sequence (Q7RTT9 1-530): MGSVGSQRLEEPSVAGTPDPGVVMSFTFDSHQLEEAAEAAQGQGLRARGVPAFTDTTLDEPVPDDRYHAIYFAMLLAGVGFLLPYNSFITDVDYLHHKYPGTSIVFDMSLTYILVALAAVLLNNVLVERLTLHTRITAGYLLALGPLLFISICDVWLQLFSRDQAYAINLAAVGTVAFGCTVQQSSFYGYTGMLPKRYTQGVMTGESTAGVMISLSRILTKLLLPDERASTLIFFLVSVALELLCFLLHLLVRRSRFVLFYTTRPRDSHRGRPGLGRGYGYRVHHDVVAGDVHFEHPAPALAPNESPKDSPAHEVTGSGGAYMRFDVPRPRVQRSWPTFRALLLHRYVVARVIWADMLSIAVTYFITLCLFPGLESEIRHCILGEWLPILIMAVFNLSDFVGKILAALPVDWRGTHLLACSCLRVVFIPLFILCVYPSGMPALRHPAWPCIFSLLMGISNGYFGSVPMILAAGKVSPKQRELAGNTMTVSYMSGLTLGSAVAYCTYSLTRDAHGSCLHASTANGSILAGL
# ENT2 [3] = target: T1, ENT2; conditions: Visser et al. 2002; cited from earlier work
# hENT4 [4] = target: T2, hENT4; conditions: cited from earlier work; remark: listed apart in the source
# hENT1 = target: T3, hENT1 (Homo sapiens, UniProt Q99808); conditions: cited from earlier work
# T3 sequence (Q99808 1-456): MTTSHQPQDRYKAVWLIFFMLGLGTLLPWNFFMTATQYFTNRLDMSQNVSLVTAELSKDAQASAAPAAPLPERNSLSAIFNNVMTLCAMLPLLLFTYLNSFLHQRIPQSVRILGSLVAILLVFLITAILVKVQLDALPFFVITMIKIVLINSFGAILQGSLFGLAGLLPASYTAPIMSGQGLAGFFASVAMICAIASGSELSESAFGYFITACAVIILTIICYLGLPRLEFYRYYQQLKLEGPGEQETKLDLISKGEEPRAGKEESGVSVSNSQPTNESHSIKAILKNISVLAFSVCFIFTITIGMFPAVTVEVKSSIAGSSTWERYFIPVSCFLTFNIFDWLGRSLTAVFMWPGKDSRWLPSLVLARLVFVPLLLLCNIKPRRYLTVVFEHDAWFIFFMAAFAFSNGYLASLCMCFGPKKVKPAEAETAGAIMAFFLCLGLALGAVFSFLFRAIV
# [5] = Table 1, different ring systems at the 4- and 8-positions
# [6] = Table 2, opening chain analogues
# [7] = Table 3, free hydrogen on the nitrogen of 4- and 8-position substituents
# [8] = Table 4, modification at hydroxyl groups of dipyridamole
compound,measurement,setting,value
"OCCN(CCO)c1nc(N2CCCCC2)c2nc(N(CCO)CCO)nc(N3CCCCC3)c2n1 [Dipyridamole, 2,6-bis-(diethanolamino)-4,8-di-piperidino-pyrimidopyrimidine]",IC50,ENT2 [1]; [5],308 nM
same,IC50,hENT4 [2]; [5],2800 nM
same,Ki,ENT2 [3],6200 nM
same,inhibition of hENT4 (in words),hENT4 [4],only weakly inhibits
same,inhibition of hENT4 (in words),hENT4 [4]; listed as dipyridamole,moderate inhibitors
OCCNc1nc(N2CCCCC2)c2nc(NCCO)nc(N3CCCCC3)c2n1 [compound 1],IC50,ENT2 [1]; [5],7440 nM
same,IC50,hENT4 [2]; [5],2200 nM
OCCN(CCO)c1nc(N2CCCC2)c2nc(N(CCO)CCO)nc(N3CCCC3)c2n1 [compound 2],IC50,ENT2 [1]; [5],556 nM
OCCN(CCO)c1nc(N2CCOCC2)c2nc(N(CCO)CCO)nc(N3CCOCC3)c2n1 [compound 4],IC50,ENT2 [1]; [5],4120 nM
CC(C)(C)OC(=O)N1CCN(c2nc(N(CCO)CCO)nc3c(N4CCN(C(=O)OC(C)(C)C)CC4)nc(N(CCO)CCO)nc23)CC1 [compound 7],IC50,ENT2 [1]; [5],2230 nM
same,IC50,hENT1; [5],580 nM
OCCN(CCO)c1nc(N2CCCCCC2)c2nc(N(CCO)CCO)nc(N3CCCCCC3)c2n1 [compound 11],IC50,ENT2 [1]; [5],117 nM
same,IC50,hENT4 [2]; [5],379 nM
OCCN(CCO)c1nc(N2CCCCCCC2)c2nc(N(CCO)CCO)nc(N3CCCCCCC3)c2n1 [compound 13],IC50,ENT2 [1]; [5],90.8 nM
same,IC50,hENT4 [2]; [5],404 nM
OCCNc1nc(N2CCCCCCC2)c2nc(NCCO)nc(N3CCCCCCC3)c2n1 [compound 14],IC50,ENT2 [1]; [5],5200 nM
same,IC50,hENT4 [2]; [5],181 nM
OCCN(CCO)c1nc(N2CCCCCCCC2)c2nc(N(CCO)CCO)nc(N3CCCCCCCC3)c2n1 [compound 15],IC50,ENT2 [1]; [5],2350 nM
same,IC50,hENT4 [2]; [5],1320 nM
OCCN(CCO)c1nc(N2C3CCCC2CC3)c2nc(N(CCO)CCO)nc(N3C4CCCC3CC4)c2n1 [compound 17],IC50,ENT2 [1]; [5],323 nM
OCCN(CCO)c1nc(N2CC3CC4CC(C3)CC2C4)c2nc(N(CCO)CCO)nc(N3CC4CC5CC(C4)CC3C5)c2n1 [compound 19],IC50,hENT4 [2]; [5],200 nM
same,IC50,hENT1; [5],393 nM
OCCNc1nc(N2CC3CC4CC(C3)CC2C4)c2nc(NCCO)nc(N3CC4CC5CC(C4)CC3C5)c2n1 [compound 20],IC50,hENT4 [2]; [5],602 nM
same,IC50,hENT1; [5],1430 nM
CCN(CC)c1nc(N(CCO)CCO)nc2c(N(CC)CC)nc(N(CCO)CCO)nc12 [compound 23],IC50,ENT2 [1]; [6],2930 nM
same,IC50,hENT4 [2]; [6],4120 nM
CCCN(CCC)c1nc(N(CCO)CCO)nc2c(N(CCC)CCC)nc(N(CCO)CCO)nc12 [compound 25],IC50,ENT2 [1]; [6],3830 nM
same,IC50,hENT4 [2]; [6],234 nM
same,IC50,hENT1; [6],197 nM
CCCCN(CCCC)c1nc(N(CCO)CCO)nc2c(N(CCCC)CCCC)nc(N(CCO)CCO)nc12 [compound 27],IC50,ENT2 [1]; [6],3310 nM
same,IC50,hENT4 [2]; [6],2960 nM
CC(C)CN(CC(C)C)c1nc(N(CCO)CCO)nc2c(N(CC(C)C)CC(C)C)nc(N(CCO)CCO)nc12 [compound 29],IC50,ENT2 [1]; [6],1960 nM
same,IC50,hENT4 [2]; [6],1710 nM
same,IC50,hENT1; [6],2630 nM
CCCCCN(CCCCC)c1nc(N(CCO)CCO)nc2c(N(CCCCC)CCCCC)nc(N(CCO)CCO)nc12 [compound 31],IC50,hENT4 [2]; [6],45700 nM
CC(C)CCN(CCC(C)C)c1nc(N(CCO)CCO)nc2c(N(CCC(C)C)CCC(C)C)nc(N(CCO)CCO)nc12 [compound 33],IC50,hENT4 [2]; [6],44200 nM
COCCN(CCOC)c1nc(N(CCO)CCO)nc2c(N(CCOC)CCOC)nc(N(CCO)CCO)nc12 [compound 35],IC50,ENT2 [1]; [6],2090 nM
same,IC50,hENT4 [2]; [6],104000 nM
same,IC50,hENT1; [6],538 nM
OCCN(CCO)c1nc(N(Cc2ccccc2)Cc2ccccc2)c2nc(N(CCO)CCO)nc(N(Cc3ccccc3)Cc3ccccc3)c2n1 [compound 37],IC50,hENT4 [2]; [6],68400 nM
CNc1nc(N(CCO)CCO)nc2c(NC)nc(N(CCO)CCO)nc12 [compound 40],IC50,hENT1; [7],8460 nM
CCNc1nc(N(CCO)CCO)nc2c(NCC)nc(N(CCO)CCO)nc12 [compound 42],IC50,hENT1; [7],768 nM
CCCNc1nc(N(CCO)CCO)nc2c(NCCC)nc(N(CCO)CCO)nc12 [compound 44],IC50,ENT2 [1]; [7],3500 nM
same,IC50,hENT4 [2]; [7],16400 nM
CC(C)Nc1nc(N(CCO)CCO)nc2c(NC(C)C)nc(N(CCO)CCO)nc12 [compound 46],IC50,ENT2 [1]; [7],3020 nM
same,IC50,hENT4 [2]; [7],26000 nM
CCCCNc1nc(N(CCO)CCO)nc2c(NCCCC)nc(N(CCO)CCO)nc12 [compound 48],IC50,ENT2 [1]; [7],2850 nM
same,IC50,hENT4 [2]; [7],1880 nM
CC(C)CNc1nc(N(CCO)CCO)nc2c(NCC(C)C)nc(N(CCO)CCO)nc12 [compound 50],IC50,ENT2 [1]; [7],1490 nM
same,IC50,hENT4 [2]; [7],3060 nM
same,IC50,hENT1; [7],126 nM
CC(C)(C)Nc1nc(N(CCO)CCO)nc2c(NC(C)(C)C)nc(N(CCO)CCO)nc12 [compound 52],IC50,hENT4 [2]; [7],767 nM
CCCCCNc1nc(N(CCO)CCO)nc2c(NCCCCC)nc(N(CCO)CCO)nc12 [compound 54],IC50,ENT2 [1]; [7],4790 nM
same,IC50,hENT4 [2]; [7],603 nM
CC(C)CCNc1nc(N(CCO)CCO)nc2c(NCCC(C)C)nc(N(CCO)CCO)nc12 [compound 56],IC50,ENT2 [1]; [7],1950 nM
same,IC50,hENT4 [2]; [7],495 nM
CCC(C)(C)Nc1nc(N(CCO)CCO)nc2c(NC(C)(C)CC)nc(N(CCO)CCO)nc12 [compound 58],IC50,hENT4 [2]; [7],818 nM
same,IC50,hENT1; [7],78.9 nM
OCCN(CCO)c1nc(NC2CC2)c2nc(N(CCO)CCO)nc(NC3CC3)c2n1 [compound 60],IC50,ENT2 [1]; [7],2710 nM
same,IC50,hENT4 [2]; [7],37600 nM
OCCN(CCO)c1nc(NC2CCC2)c2nc(N(CCO)CCO)nc(NC3CCC3)c2n1 [compound 62],IC50,ENT2 [1]; [7],727 nM
same,IC50,hENT4 [2]; [7],15700 nM
OCCNc1nc(NC2CCC2)c2nc(NCCO)nc(NC3CCC3)c2n1 [compound 63],IC50,ENT2 [1]; [7],7750 nM
same,IC50,hENT1; [7],1860 nM
OCCN(CCO)c1nc(NC2CCCC2)c2nc(N(CCO)CCO)nc(NC3CCCC3)c2n1 [compound 64],IC50,ENT2 [1]; [7],1320 nM
same,IC50,hENT4 [2]; [7],12200 nM
OCCN(CCO)c1nc(NC2CCCCC2)c2nc(N(CCO)CCO)nc(NC3CCCCC3)c2n1 [compound 66],IC50,hENT4 [2]; [7],124000 nM
OCCN(CCO)c1nc(Nc2ccccc2)c2nc(N(CCO)CCO)nc(Nc3ccccc3)c2n1 [compound 68],IC50,hENT1; [7],1120 nM
OCCNc1nc(NCc2ccccc2)c2nc(NCCO)nc(NCc3ccccc3)c2n1 [compound 71],IC50,hENT4 [2]; [7],1760 nM
OCCOc1nc(N2CCCCC2)c2nc(OCCO)nc(N3CCCCC3)c2n1 [compound 72],IC50,ENT2 [1]; [8],1780 nM
C1CCN(c2nc(N3CCOCC3)nc3c(N4CCCCC4)nc(N4CCOCC4)nc23)CC1 [compound 73],IC50,hENT1; [8],1640 nM
O=COCCN(CCOC=O)c1nc(N2CCCCC2)c2nc(N(CCOC=O)CCOC=O)nc(N3CCCCC3)c2n1 [compound 74],IC50,ENT2 [1]; [8],532 nM
same,IC50,hENT1; [8],69.1 nM
CC(=O)OCCN(CCOC(C)=O)c1nc(N2CCCCC2)c2nc(N(CCOC(C)=O)CCOC(C)=O)nc(N3CCCCC3)c2n1 [compound 75],IC50,ENT2 [1]; [8],708 nM
same,IC50,hENT4 [2]; [8],14100 nM
COCCN(CCOC)c1nc(N2CCCCC2)c2nc(N(CCOC)CCOC)nc(N3CCCCC3)c2n1 [compound 76],IC50,ENT2 [1]; [8],1470 nM
same,IC50,hENT4 [2]; [8],1820 nM
CCOCCN(CCOCC)c1nc(N2CCCCC2)c2nc(N(CCOCC)CCOCC)nc(N3CCCCC3)c2n1 [compound 77],IC50,hENT4 [2]; [8],29900 nM
same,IC50,hENT1; [8],768 nM
CCCOCCN(CCOCCC)c1nc(N2CCCCC2)c2nc(N(CCOCCC)CCOCCC)nc(N3CCCCC3)c2n1 [compound 78],IC50,hENT4 [2]; [8],140000 nM
CC(C)OCCN(CCO)c1nc(N2CCCCC2)c2nc(N(CCO)CCOC(C)C)nc(N3CCCCC3)c2n1 [compound 79],IC50,ENT2 [1]; [8],175 nM
same,IC50,hENT1; [8],67.5 nM
COc1cc(C(=O)OCCCN2CCCN(CCCOC(=O)c3cc(OC)c(OC)c(OC)c3)CC2)cc(OC)c1OC [dilazep],Ki,ENT2 [3],134000 nM
